Entries after “also recorded” stand apart in the source; their conditions may differ. Like-named read-outs stand apart in the source and are kept apart here.
Legend:
[1] = system: non-transduced hESC; assay type: cell-based; conditions: 96 h nucleoside exposure; up to 100 µM
Description: Cells were exposed to 100 µM of the respective nucleoside for 48 h. DNA damage was monitored using γ-H2A.X marker in yellow and nuclei were counterstained with Hoechst. The white box in the first column indicates the area of the zoom for the hESC colonies.
Plates were washed twice with DMEM-F12 (Gibco, ThermoFisher; Geneva, Switzerland), then coated with Matrigel (Corning, Lonay, Switzerland) 1/100 in DMEM-F12 and incubate 2 h at 37°. Cells were detached using Accutase and seeded at 2000 cells/well in serum-free culture medium containing 10 µM of ROCK inhibitor. At 24 h, the cell culture was continued without ROCK inhibitor. […] Drugs were prepared by serial dilution (two-fold) in 100% DMSO. At 48 h after seeding, cells were exposed to antiviral drugs for 96 h. For EC50 assays, the medium was changed daily for 4 days, then cell viability was assessed using an ATP-based assay. EC50 values for each construct were calculated using a four parameters equation (GraphPad, Prism8, San Diego, CA, USA). The same procedure was used for the cell death kinetic determinations except the treatment duration. Luminescence was measured using Spectra L384/L96 (0.2 sec exposure, Molecular devices, Biberach an der Riß, Germany).

[2] = system: Ki67-SR39h-expressing hESC transplanted into the striatum; experiment: In vivo prevention of tumor formation after striatal transplantation; set-up: species or system NOD/SCID mice; conditions: 40 mg/kg/day i.p., 47 days post-transplantation
Description: Given the encouraging in vitro results, we next investigated whether this newly developed safety switch system (SR39h and different nucleoside analogs) could prevent tumor formation in vivo. For this purpose, 20,000 undifferentiated Ki67-SR39h-expressing hESC were transplanted into the striatum of NOD/SCID mice. […] A group of control mice received only a NaCl solution. […] Human cytoplasmic marker (HCM) staining confirmed the human (i.e., hESC-derived) origin of these tumors. Tumors cells were predominantly Ki67 positive with a rosette organization as frequently found in tumors of the central nervous system.
Figure 7 in vivo validation of suicide gene and inducers. (A) Schematic diagram of the experimental setup to detect tumor elimination in vivo. NOD/SCID mice were transplanted with 20,000 SR39h-expressing hESC through stereotactic injection into the striatum. 48 h post transplantation, mice were intraperitoneally injected with the respective nucleoside (40 mg/kg) for five consecutive days a week during a two-week period. Control mice were treated with a NaCl solution. Mice were sacrificed 47 days post transplantation. (B) Cresyl violet staining of a brain section. […] (C) Immunostaining of brain coronal section (sections from ACV-, PCV-, and GCV-treated mice are shown in the upper, middle, and lower row, respectively). Staining with the proliferation marker Ki67 and with the human cytoplasmic marker (HCM) are shown in red and green, respectively. Nuclei were counterstained with DAPI (blue). White arrows show residual proliferative cells form the graft. A merge of the three staining is shown in the right column. Each experimental group consisted of five mice.
Single cell transplant: Undifferentiated HS420 (expressing TK variants) were detached by TrypLE and concentrated at 20,000 cells/μL in Stemflex. 20,000 cells (1 μL) were injected into the right striatum using a 26-G Hamilton syringe (Hamilton, BGB Analytik AG, Boeckten, Switzerland). Injection coordinates for striatum were: bregma = 0.6 mm, mediolateral = 2 mm, dorsoventral = 3 mm.
Thirty days after termination of treatment with the respective antiviral nucleoside analogs or control (NaCl), mice were sacrificed by intracardiac perfusion of paraformaldehyde 4% in PBS. Brains were removed from the skull and post-fixed in the same fixative overnight.
Paraffin embedded brains were sectioned (coronal sections 7 µm thick) and processed for hematoxylin and eosin or cresyl violet staining stain aiming morphological assessment of the graft. Sections were mounted in Eukitt (Kindler GmbH, Germany) and observed under microscope (see below)
The primary antibody diluted in PBS with 0.3% Triton was incubated at 4 °C overnight in agitation. […]

[3] = system: hESC (HS420) expressing Ki67-SR39h; experiment: ATP-based cell survival assay, nucleoside-induced cell death; conditions: for EC50: Homo sapiens, 96 h

Nc1nc(O)c2ncn(COC(CO)CO)c2n1 [GCV, ganciclovir] was tested, and the “Toxicity in non-transduced hESC” value [1] was “low micromolar range”, the Tumor formation ([2]; five consecutive days a week for two weeks, from 2 days after transplantation, five mice per group) was “prevented tumor formation; also recorded: no major tumors; also recorded: impressive anti-tumor activities” and the “Mice with a small nuclei-rich region at the graft site” value ([2]; cresyl violet staining) was “did not observe any structures resembling tumors”. For the same molecule, the “Cell death induction in SR39h-expressing cells (in words)” value ([3]; 96 h nucleoside exposure) was “strong suicide inducers”, the “Fold more performant than SR39” value ([3]; GCV EC50, SR39h vs SR39) was 10 fold and the EC50 ([3]; read-out: EC50 (cell survival), 96 h nucleoside exposure, SR39h under Ki67 promoter) was 0.2 nM. The EC50 ([3]; read-out: GCV EC50 in M, 96 h GCV exposure, Ki67-SR39h) was 0.19 nM.
